Laboratory results: ChEMBL document CHEMBL4507288 (2021)
Calls of active or inactive are those of the source. No cut-off for these calls is given here.

How the values were obtained:
[1] = molecular target: 5-hydroxytryptamine receptor 7 (Homo sapiens, UniProt P34969); details: Compound concentration 10.0 uM
[2] = molecular target: 5-hydroxytryptamine receptor 5A (Homo sapiens) (UniProt P47898); details: Compound concentration 10.0 uM
[3] = molecular target: 5-hydroxytryptamine receptor 1B (Homo sapiens, UniProt P28222); details: Compound concentration 10.0 uM
[4] = molecular target: Delta-type opioid receptor (Homo sapiens) (UniProt P41143); details: Compound concentration 10.0 uM
[5] = molecular target: T1, D(2) dopamine receptor (Homo sapiens, UniProt P14416); assay: GPCRScan assay: inhibition of D2; parameters: radioligand conc. used [nm] 0.4 – 1.0, parental cells stable fibroblast
[6] = molecular target: Sodium-dependent noradrenaline transporter (Homo sapiens, UniProt P23975); details: Compound concentration 10.0 uM
[7] = molecular target: Alpha-2A adrenergic receptor (Homo sapiens) (UniProt P08913); details: Compound concentration 10.0 uM
[8] = molecular target: Muscarinic acetylcholine receptor M2 (Homo sapiens) (UniProt P08172); details: Compound concentration 10.0 uM
[9] = molecular target: Alpha-2C adrenergic receptor (Homo sapiens) (UniProt P18825); details: Compound concentration 10.0 uM
[10] = molecular target: Alpha-1D adrenergic receptor (Homo sapiens) (UniProt P25100); details: Compound concentration 10.0 uM
[11] = molecular target: Mu-type opioid receptor (Homo sapiens) (UniProt P35372); details: Compound concentration 10.0 uM
[12] = molecular target: Sodium-dependent serotonin transporter (Homo sapiens) (UniProt P31645); details: Compound concentration 10.0 uM
[13] = molecular target: 5-hydroxytryptamine receptor 2C (Homo sapiens) (UniProt P28335); details: Compound concentration 10.0 uM
[14] = molecular target: Sigma intracellular receptor 2 (Homo sapiens, UniProt Q5BJF2); details: Compound concentration 10.0 uM
[15] = molecular target: D(3) dopamine receptor (Homo sapiens, UniProt P35462); details: Compound concentration 10.0 uM
[16] = molecular target: 5-hydroxytryptamine receptor 2B (Homo sapiens, UniProt P41595); details: Compound concentration 10.0 uM
[17] = molecular target: T1, D(2) dopamine receptor; details: Compound concentration 10.0 uM
[18] = molecular target: Alpha-2B adrenergic receptor (Homo sapiens) (UniProt P18089); details: Compound concentration 10.0 uM
[19] = molecular target: Alpha-1A adrenergic receptor (Homo sapiens) (UniProt P35348); details: Compound concentration 10.0 uM
[20] = molecular target: 5-hydroxytryptamine receptor 1D (Homo sapiens, UniProt P28221); details: Compound concentration 10.0 uM
[21] = molecular target: Alpha-1B adrenergic receptor (Homo sapiens) (UniProt P35368); details: Compound concentration 10.0 uM
[22] = molecular target: Kappa-type opioid receptor (Homo sapiens, UniProt P41145); details: Compound concentration 10.0 uM
[23] = molecular target: Sigma non-opioid intracellular receptor 1 (Homo sapiens, UniProt Q99720); details: Compound concentration 10.0 uM
[24] = molecular target: 5-hydroxytryptamine receptor 1A (Homo sapiens) (UniProt P08908); details: Compound concentration 10.0 uM
[25] = molecular target: 5-hydroxytryptamine receptor 6 (Homo sapiens) (UniProt P50406); details: Compound concentration 10.0 uM
[26] = molecular target: Muscarinic acetylcholine receptor M1 (Homo sapiens) (UniProt P11229); details: Compound concentration 10.0 uM
[27] = molecular target: GABA-A receptor; anion channel (Rattus norvegicus) (UniProt O09028+P15431+P18506+P18508+P19969+P20236+P23574+P23576+P28471+P28473+P30191+P62813+P63079+P63138+Q91ZM7+Q9ES14); details: Compound concentration 10.0 uM
[28] = molecular target: D(1A) dopamine receptor (Homo sapiens) (UniProt P21728); details: Compound concentration 10.0 uM
[29] = molecular target: Histamine H3 receptor (Homo sapiens) (UniProt Q9Y5N1); details: Compound concentration 10.0 uM
[30] = molecular target: Histamine H1 receptor (Homo sapiens) (UniProt P35367); details: Compound concentration 10.0 uM
[31] = molecular target: D(1B) dopamine receptor (Homo sapiens) (UniProt P21918); details: Compound concentration 10.0 uM
[32] = molecular target: 5-hydroxytryptamine receptor 2A (Homo sapiens, UniProt P28223); details: Compound concentration 10.0 uM
[33] = molecular target: Muscarinic acetylcholine receptor M5 (Homo sapiens) (UniProt P08912); details: Compound concentration 10.0 uM
[34] = molecular target: Beta-3 adrenergic receptor (Homo sapiens) (UniProt P13945); details: Compound concentration 10.0 uM
[35] = molecular target: 5-hydroxytryptamine receptor 3A (Homo sapiens) (UniProt P46098); details: Compound concentration 10.0 uM
[36] = molecular target: Muscarinic acetylcholine receptor M4 (Homo sapiens) (UniProt P08173); details: Compound concentration 10.0 uM
[37] = molecular target: Amyloid-beta precursor protein (Homo sapiens, UniProt P05067); assay: Aβ40 inhibition assay
[38] = molecular target: D(4) dopamine receptor (Homo sapiens) (UniProt P21917); details: Compound concentration 10.0 uM
[39] = molecular target: Sodium-dependent dopamine transporter (Homo sapiens, UniProt Q01959); details: Compound concentration 10.0 uM
[40] = test system: Mast/stem cell growth factor receptor Kit (Homo sapiens), P10721 [A829P]; details: Compound concentration 1000.0 nM
[41] = molecular target: Myosin-IIIb (Homo sapiens) (UniProt Q8WXR4); details: Compound concentration 1000.0 nM
[42] = molecular target: Serine/threonine-protein kinase 17B (Homo sapiens) (UniProt O94768); details: Compound concentration 1000.0 nM
[43] = molecular target: Mitogen-activated protein kinase kinase kinase kinase 2 (Homo sapiens) (UniProt Q12851); details: Compound concentration 1000.0 nM
[44] = molecular target: Myosin light chain kinase, smooth muscle (Homo sapiens) (UniProt Q15746); details: Compound concentration 1000.0 nM
[45] = molecular target: Serine/threonine-protein kinase NIM1 (Homo sapiens) (UniProt Q8IY84); details: Compound concentration 1000.0 nM
[46] = molecular target: Dual specificity mitogen-activated protein kinase kinase 2 (Homo sapiens) (UniProt P36507); details: Compound concentration 1000.0 nM

T1 sequence (P14416 whole entry): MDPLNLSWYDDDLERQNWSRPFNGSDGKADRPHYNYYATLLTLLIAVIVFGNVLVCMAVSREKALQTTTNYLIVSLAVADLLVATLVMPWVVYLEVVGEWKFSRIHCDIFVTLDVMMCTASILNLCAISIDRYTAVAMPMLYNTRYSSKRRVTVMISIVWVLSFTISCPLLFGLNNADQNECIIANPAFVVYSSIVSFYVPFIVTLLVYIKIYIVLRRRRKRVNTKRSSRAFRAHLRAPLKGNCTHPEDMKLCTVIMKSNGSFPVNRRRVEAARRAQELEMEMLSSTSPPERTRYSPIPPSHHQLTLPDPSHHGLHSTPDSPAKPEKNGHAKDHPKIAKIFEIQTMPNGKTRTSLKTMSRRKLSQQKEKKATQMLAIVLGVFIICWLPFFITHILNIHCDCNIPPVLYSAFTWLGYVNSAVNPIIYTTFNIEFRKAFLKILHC
Kappa-type opioid receptor, sequence (P41145 whole entry): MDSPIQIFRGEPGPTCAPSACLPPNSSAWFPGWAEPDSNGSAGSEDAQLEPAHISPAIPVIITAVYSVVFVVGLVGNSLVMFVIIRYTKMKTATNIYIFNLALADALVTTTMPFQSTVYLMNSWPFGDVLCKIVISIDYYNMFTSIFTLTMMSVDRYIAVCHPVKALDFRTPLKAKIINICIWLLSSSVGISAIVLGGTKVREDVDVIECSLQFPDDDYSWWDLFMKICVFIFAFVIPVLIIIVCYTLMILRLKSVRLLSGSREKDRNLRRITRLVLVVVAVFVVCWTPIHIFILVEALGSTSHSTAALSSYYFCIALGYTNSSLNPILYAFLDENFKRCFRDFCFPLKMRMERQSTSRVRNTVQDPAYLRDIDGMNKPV
5-hydroxytryptamine receptor 1D, sequence (P28221 whole entry): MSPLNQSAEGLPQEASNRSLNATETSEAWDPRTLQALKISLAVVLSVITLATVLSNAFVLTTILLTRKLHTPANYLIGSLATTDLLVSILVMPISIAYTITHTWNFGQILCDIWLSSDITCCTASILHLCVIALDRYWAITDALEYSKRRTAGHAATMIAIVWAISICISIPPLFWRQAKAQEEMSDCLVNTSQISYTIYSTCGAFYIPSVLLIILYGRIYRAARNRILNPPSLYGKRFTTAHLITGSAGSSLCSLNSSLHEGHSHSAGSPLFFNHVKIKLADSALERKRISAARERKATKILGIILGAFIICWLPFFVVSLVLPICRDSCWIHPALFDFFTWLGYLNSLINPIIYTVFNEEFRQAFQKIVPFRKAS
Muscarinic acetylcholine receptor M1 (Homo sapiens), sequence (P11229 whole entry): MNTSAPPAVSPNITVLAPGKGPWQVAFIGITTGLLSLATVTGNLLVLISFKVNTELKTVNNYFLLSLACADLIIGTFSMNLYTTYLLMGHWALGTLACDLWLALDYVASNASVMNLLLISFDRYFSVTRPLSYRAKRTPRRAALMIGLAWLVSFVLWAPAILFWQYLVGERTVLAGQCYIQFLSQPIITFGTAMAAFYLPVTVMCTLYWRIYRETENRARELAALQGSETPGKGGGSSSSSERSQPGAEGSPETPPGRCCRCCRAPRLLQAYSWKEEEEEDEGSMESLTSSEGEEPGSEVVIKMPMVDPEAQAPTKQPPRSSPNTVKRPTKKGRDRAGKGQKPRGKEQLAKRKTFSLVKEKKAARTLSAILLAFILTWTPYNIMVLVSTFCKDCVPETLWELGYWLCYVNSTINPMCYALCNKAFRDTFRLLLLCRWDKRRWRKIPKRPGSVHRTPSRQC
Sigma non-opioid intracellular receptor 1, sequence (Q99720 whole entry): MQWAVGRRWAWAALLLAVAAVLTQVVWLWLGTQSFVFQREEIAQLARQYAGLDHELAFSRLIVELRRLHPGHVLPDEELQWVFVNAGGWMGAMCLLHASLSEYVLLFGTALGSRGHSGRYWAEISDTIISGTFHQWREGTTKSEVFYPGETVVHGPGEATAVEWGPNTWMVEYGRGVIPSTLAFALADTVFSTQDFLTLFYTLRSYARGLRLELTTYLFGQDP
Mu-type opioid receptor (Homo sapiens), sequence (P35372 whole entry): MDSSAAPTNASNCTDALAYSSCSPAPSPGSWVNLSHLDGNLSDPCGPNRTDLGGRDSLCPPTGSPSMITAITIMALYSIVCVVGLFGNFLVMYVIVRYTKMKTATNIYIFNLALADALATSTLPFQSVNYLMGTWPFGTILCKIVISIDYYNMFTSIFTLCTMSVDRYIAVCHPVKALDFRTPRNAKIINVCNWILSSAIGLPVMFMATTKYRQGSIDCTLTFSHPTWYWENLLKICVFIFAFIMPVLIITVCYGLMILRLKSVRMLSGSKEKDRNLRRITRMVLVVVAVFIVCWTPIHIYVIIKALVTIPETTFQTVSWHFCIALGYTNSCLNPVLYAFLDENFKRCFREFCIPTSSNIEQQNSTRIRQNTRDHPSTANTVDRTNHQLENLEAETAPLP
5-hydroxytryptamine receptor 3A (Homo sapiens), sequence (P46098 whole entry): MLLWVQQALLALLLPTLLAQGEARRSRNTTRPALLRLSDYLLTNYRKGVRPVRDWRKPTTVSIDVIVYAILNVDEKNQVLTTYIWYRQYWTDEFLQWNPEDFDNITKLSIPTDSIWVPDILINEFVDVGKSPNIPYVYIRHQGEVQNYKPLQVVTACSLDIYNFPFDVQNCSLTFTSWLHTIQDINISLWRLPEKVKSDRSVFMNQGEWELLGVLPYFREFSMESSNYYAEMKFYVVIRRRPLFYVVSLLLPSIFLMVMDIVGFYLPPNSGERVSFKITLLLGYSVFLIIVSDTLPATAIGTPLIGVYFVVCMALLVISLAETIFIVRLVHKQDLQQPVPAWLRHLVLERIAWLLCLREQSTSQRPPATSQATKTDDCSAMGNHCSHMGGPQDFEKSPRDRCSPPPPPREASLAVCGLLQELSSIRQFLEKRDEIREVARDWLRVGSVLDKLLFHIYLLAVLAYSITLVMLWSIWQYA
Sodium-dependent noradrenaline transporter, sequence (P23975 whole entry): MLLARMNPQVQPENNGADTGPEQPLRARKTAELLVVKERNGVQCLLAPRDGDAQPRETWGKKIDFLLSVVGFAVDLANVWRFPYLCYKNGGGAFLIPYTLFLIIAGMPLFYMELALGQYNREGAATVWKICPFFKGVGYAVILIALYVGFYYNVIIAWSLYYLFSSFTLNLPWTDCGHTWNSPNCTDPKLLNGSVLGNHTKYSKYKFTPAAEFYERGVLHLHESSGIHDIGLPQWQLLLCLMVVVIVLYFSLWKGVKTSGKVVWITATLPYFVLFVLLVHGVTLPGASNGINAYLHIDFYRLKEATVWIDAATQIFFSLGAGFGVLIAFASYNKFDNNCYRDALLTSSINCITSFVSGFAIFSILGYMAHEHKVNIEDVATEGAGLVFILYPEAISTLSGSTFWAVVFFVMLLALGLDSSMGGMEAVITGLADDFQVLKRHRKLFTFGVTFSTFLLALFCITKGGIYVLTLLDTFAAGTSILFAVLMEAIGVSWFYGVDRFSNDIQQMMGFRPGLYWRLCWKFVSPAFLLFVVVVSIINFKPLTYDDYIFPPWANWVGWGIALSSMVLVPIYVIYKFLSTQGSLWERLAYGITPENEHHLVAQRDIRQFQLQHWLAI
Muscarinic acetylcholine receptor M4 (Homo sapiens), sequence (P08173 whole entry): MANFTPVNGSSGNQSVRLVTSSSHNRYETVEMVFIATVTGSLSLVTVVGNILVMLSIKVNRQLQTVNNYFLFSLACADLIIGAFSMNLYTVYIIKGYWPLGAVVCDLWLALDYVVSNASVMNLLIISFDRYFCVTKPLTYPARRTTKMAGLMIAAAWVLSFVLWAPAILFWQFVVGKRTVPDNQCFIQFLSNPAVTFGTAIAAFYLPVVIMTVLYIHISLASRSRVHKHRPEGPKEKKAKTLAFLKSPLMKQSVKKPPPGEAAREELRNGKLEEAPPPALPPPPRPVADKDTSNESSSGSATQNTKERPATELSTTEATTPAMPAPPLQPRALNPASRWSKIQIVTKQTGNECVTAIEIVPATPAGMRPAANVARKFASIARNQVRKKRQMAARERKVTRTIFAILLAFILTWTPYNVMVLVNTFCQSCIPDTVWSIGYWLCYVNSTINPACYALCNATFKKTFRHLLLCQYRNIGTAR
Alpha-2B adrenergic receptor (Homo sapiens), sequence (P18089 whole entry): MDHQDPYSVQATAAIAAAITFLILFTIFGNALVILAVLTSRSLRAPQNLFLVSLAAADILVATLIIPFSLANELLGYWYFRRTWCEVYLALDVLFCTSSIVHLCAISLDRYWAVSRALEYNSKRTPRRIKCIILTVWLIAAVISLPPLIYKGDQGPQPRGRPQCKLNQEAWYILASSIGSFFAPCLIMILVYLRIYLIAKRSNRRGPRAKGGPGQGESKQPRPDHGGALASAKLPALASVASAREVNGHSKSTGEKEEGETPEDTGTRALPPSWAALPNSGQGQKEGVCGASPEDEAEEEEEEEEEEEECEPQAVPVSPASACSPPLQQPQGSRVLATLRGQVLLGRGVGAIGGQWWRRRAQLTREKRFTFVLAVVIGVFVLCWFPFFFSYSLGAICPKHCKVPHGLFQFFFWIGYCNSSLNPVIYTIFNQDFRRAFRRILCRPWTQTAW
5-hydroxytryptamine receptor 1A (Homo sapiens), sequence (P08908 whole entry): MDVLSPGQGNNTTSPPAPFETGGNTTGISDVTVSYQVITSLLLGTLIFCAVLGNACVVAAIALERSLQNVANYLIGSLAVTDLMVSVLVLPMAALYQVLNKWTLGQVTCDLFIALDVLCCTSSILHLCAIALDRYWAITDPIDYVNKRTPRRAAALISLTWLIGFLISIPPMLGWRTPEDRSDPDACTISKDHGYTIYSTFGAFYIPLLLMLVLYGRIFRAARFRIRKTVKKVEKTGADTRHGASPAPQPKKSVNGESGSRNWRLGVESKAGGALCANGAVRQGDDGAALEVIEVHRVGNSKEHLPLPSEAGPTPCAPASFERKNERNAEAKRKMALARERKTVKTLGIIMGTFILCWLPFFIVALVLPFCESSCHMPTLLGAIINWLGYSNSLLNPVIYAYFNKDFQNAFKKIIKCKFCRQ
Sigma intracellular receptor 2, sequence (Q5BJF2 whole entry): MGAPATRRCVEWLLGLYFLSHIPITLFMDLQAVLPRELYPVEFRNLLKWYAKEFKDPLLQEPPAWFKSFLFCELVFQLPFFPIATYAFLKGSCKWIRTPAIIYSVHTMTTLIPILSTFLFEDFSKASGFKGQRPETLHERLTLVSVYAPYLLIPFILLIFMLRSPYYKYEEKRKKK

## CC(C)(C)OC(=O)N1CCCC1CNC1CCC(c2cc(F)ccc2F)(S(=O)(=O)c2ccc(Cl)cc2)CC1 (centres undefined) [GSI-NC]
[1]
  inhibition: 70.7%
[2]
  inhibition: 35%
[3]
  inhibition: 70.4%
[4]
  inhibition: 21.4%
[5]
  Ki: 1220 nM
[6]
  inhibition: 50.7%
[7]
  inhibition: 82.3%
[8]
  inhibition: 9.4%
[9]
  inhibition: 81.4%
[10]
  inhibition: 22.5%
[11]
  inhibition: 49.1%
[12]
  inhibition: 6.71%
[13]
  inhibition: 80.9%
[14]
  inhibition: 83.4%
[15]
  inhibition: 86.1%
[16]
  inhibition: 97.2%
[17]
  inhibition: 83%
[18]
  inhibition: 77.4%
[19]
  inhibition: 12.4%
[20]
  inhibition: 61.4%
[21]
  inhibition: 41%
[22]
  inhibition: 69.8%
[23]
  inhibition: 91.6%
[24]
  inhibition: 66.3%
[25]
  inhibition: 37.1%
[26]
  inhibition: 8.44%
[27]
  inhibition: 14.6%
[28]
  inhibition: 13.8%
[29]
  inhibition: 26.9%
[30]
  inhibition: 25.6%
[31]
  inhibition: 13.1%
[32]
  inhibition: 92.2%
[33]
  inhibition: 26.5%
[34]
  inhibition: 25.6%
[35]
  inhibition: -5.6%
[36]
  inhibition: 25.6%
[37]
  IC50: 1600 nM (not active)
[38]
  inhibition: 20.4%
[39]
  inhibition: 95.9%

## O=S(=O)(NC1CCC(c2cc(F)ccc2F)(S(=O)(=O)c2ccc(Cl)cc2)CC1)C(F)(F)F (centres undefined) [MRK-560]
[1]
  inhibition: -5.02%
[2]
  inhibition: -5.05%
[3]
  inhibition: 15.4%
[4]
  inhibition: 20%
[6]
  inhibition: 7.49%
[7]
  inhibition: 8.45%
[8]
  inhibition: -0.654%
[9]
  inhibition: 18.2%
[40]
  residual activity: 100%
[10]
  inhibition: 0.882%
[11]
  inhibition: 20%
[12]
  inhibition: -3.67%
[13]
  inhibition: 12.3%
[41]
  residual activity: 100%
[14]
  inhibition: 25.2%
[42]
  residual activity: 97%
[43]
  residual activity: 100%
[15]
  inhibition: 21.7%
[16]
  inhibition: 4.74%
[17]
  inhibition: 11.4%
[44]
  residual activity: 100%
[18]
  inhibition: -2.13%
[19]
  inhibition: 9.88%
[20]
  inhibition: 13.9%
[21]
  inhibition: -5.22%
[22]
  inhibition: 24.6%
[23]
  inhibition: 36.8%
[24]
  inhibition: 18.3%
[25]
  inhibition: 12.3%
[26]
  inhibition: -5.38%
[27]
  inhibition: 28.6%
[45]
  residual activity: 80%
[28]
  inhibition: 17.4%
[29]
  inhibition: 14.2%
[30]
  inhibition: 20.3%
[31]
  inhibition: 11.3%
[32]
  inhibition: 31.2%
[33]
  inhibition: 1.96%
[34]
  inhibition: 13.5%
[35]
  inhibition: -8.12%
[36]
  inhibition: 18.9%
[37]
  IC50: < 0.5 nM (active)
[38]
  inhibition: 20.1%
[39]
  inhibition: 75.1%
[46]
  residual activity: 100%
